Results on 5 molecules are retold here after patent US20260060972A1, “Quantitative Method of Determining a Mental Status Based on DRD1 and/or DRD5, and its Application Thereof” (priority 2022, published 2026).

Entries after “also recorded” stand apart in the source; their conditions may differ.

In assay [1] the test system is 2.8-kb human DRD1 gene promoter. In words: Dual-luciferase reporter assay of human DRD1 gene promoter in SH-SY5Y cells. To be noted: for effect on SCH23390/SKF81297-altered DRD1 promoter activity: co-treatment with SCH23390 or SKF81297. On the technique in general: Reporter assays use an easily measured gene product as a stand-in for the process of interest.
Another assay relates to human DRD1 gene. In words: DRD1 mRNA expression by quantitative real time-PCR in SH-SY5Y cells. To be noted: for DRD1 mRNA expression, time response: 10 μM, 12, 18, 24, 30 or 32 hrs; for effect of Haloperidol co-treatment on SCH23390-decreased DRD1 mRNA expression: Haloperidol 10 μM co-treatment 12 hrs.
Another assay has as its system DRD1 membrane protein. Conditions: treatment for 36 hrs.
Where [2] appears, read: 10 μM, treatment for 18 hrs (FIG. 2A, 3A).
[3] abbreviates: 10 μM, treatment for 24 hrs (FIG. 2A, 3A).

Description for DRD1 membrane protein: The cultured SH-SY5Y cells were pretreated with complete EMEM medium containing 10 μM SCH23390 for 6 hrs or 12 hrs. […] After treatment, the cells were harvested and processed for mRNA and protein analysis of human DRD1 gene.
The cultured SH-SY5Y cells were pretreated with complete EMEM medium containing 10 μM SKF81297 for 6 hrs or 12 hrs. […] After treatment, the cells were harvested and processed for mRNA and protein analysis of human DRD1 gene
The membrane proteins were extracted using the mem-PER Plus membrane protein extraction kit (ThermoFisher Scinetific, Waltham, MA). The protein concentrations were semi-quantified spectrophotometrically at 280 nm. […] Then, proteins were electro-transferred to a polyvinyl difluoride (PVDF) membrane. […] After the block, the membrane was incubated with primary antibody (human DRD1 antibody, 1:1000) overnight at 4° C. […] The membrane was briefly washed 3 times using fresh TBS, then incubated with Pierce High Sensitivity Streptavidin HRP-linked secondary antibody (1:5000) in TBS supplemented with 0.5% BSA for 30 minutes at room temperature. The membrane was rinsed 3 times using fresh TBS. The immunoreactive protein bands in the membrane were visualized via UVP Biospectrum Imaging system (Upland, CA) using with Immobilon Chemiluminescence reagents (Millipore, Billerica, MA). Protein bands analysis was performed using the ImageJ (NIH, Bethesda, MD).

As to `CN(C)C(=O)N[C@H]1CC[C@H](CCN2CCN(c3cccc(Cl)c3Cl)CC2)CC1` [Cariprazine], the “effect on SCH23390/SKF81297-altered DRD1 promoter activity” value in assay [1] is reported as “trans-stabilize SCH23390/SKF81297-altered DRD1 promoter activity”.

For the molecule `O=C(CCCN1CCC(O)(c2ccc(Cl)cc2)CC1)c1ccc(F)cc1` [Haloperidol], the “DRD1 mRNA expression, time response” value with human DRD1 gene (SH-SY5Y cells (FIG. 1A)) is “did not alter DRD1 mRNA expression at any time points”. The “DRD1 mRNA and protein expression, treatment alone (summary)” value in the assay with human DRD1 gene (10 μM, SH-SY5Y cells) is reported as “does not alter DRD1 expression”. Also, the “DRD1 mRNA expression, treatment alone” value with human DRD1 gene (setting [2]) and in the assay with human DRD1 gene (setting [3]) was “did not alter DRD1 mRNA expression” in each case. Also, the “effect of Haloperidol co-treatment on SKF81297-increased DRD1 mRNA expression” value in the assay on human DRD1 gene (Haloperidol co-treatment for 12 hrs (FIG. 3A)) is “completely diminished SKF81297-increased DRD1 mRNA expression”. The “effect of Haloperidol co-treatment on SCH23390-decreased DRD1 mRNA expression” value in the assay with human DRD1 gene (SCH23390 10 μM for 18 hrs) was “completely reversed”; with human DRD1 gene (SCH23390 10 μM for 24 hrs), “not reversed”. Also, the “effect of Haloperidol co-treatment on SCH23390-decreased DRD1 mRNA and protein expression (summary)” value with human DRD1 gene (SH-SY5Y cells (FIGS. 2A-2E)) is “reverses SCH23390-decreased DRD1 mRNA and protein expression; also recorded: reversed”. Further, the “effect of Haloperidol co-treatment on SKF81297-increased DRD1 mRNA and protein expression (summary)” value in the assay on human DRD1 gene (SH-SY5Y cells (FIGS. 3A-3E)) was “attenuated SKF81297-increased DRD1 mRNA and protein expression”. Besides, in assay [1] (2.8-kb promoter luciferase reporter, SCH23390 and SKF81297 for 36 hrs (FIG. 4A, 4B)), the “human DRD1 gene promoter activity, treatment alone” value is recorded as “did not change human DRD1 gene promoter activity”. The “effect of haloperidol cotreatment on SCH23390-repressed DRD1 promoter activity” value in assay [1] (SCH23390 36 hrs, haloperidol cotreatment 24 or 36 hrs (FIG. 4A)) was “reversed”. Also, the “effect of haloperidol co-treatment on SKF81297-activated DRD1 promoter activity” value in assay [1] (SKF81297 36 hrs, haloperidol co-treatment 24 and 36 hrs (FIG. 4B)) is recorded as “markedly attenuated”. Moreover, the “effect on SCH23390/SKF81297-altered DRD1 promoter activity” value in assay [1] is given as “reversed SCH23390/SKF21897-altered DRD1 promoter activity; also recorded: reversed either SCH23390 or SKF81297-altered human DRD1 promoter activity”.

As for `Cc1nc2n(c(=O)c1CCN1CCC(c3noc4cc(F)ccc34)CC1)CCCC2` [Risperidone], in assay [1] (co-treatment of SCH (FIG. 5A, 6A)), the “relative Luciferase activity of DRD1 under treatment of SCH and antipsychotic” value was “partial DRD1 antagonist effect”. Further, in assay [1] (co-treatment of SKF (FIG. 5B, 6B)), the “relative Luciferase activity of DRD1 under treatment of SKF and antipsychotic” value is “partial DRD1 antagonist effect”. In addition, the “effect on SCH23390/SKF81297-altered DRD1 promoter activity” value in assay [1] was “trans-stabilize SCH23390/SKF81297-altered DRD1 promoter activity; also recorded: reverse and normalize either SCH23390 or SKF81297-altered human DRD1 promoter activity”.

For `CN1CCc2cc(Cl)c(O)cc2[C@@H](c2ccccc2)C1` [SCH23390, SCH-23390], the “decrease of DRD1 membrane protein” value in the assay on DRD1 membrane protein is “more than 70%”.

For the molecule `Oc1cc2c(c(Cl)c1O)CCNCC2c1ccccc1` (stereo not drawn) [SKF81297, SKF-81297], the “DRD1 mRNA expression, time response” value with human DRD1 gene (SH-SY5Y cells (FIG. 1A)) is reported as “time-dependently increased DRD1 mRNA expression”. For the same molecule, the “increase of DRD1 mRNA expression” value with human DRD1 gene (10 μM, 24 hrs later, SH-SY5Y cells (FIG. 1A)) amounted to 6 fold. In the assay on human DRD1 gene (10 μM, 30 hrs later and thereafter, SH-SY5Y cells), the “DRD1 mRNA expression 30 hrs later and thereafter” value is on record as “decreased to basal level”. Also, in the assay with human DRD1 gene (10 μM, SH-SY5Y cells), the “DRD1 mRNA and protein expression, treatment alone (summary)” value is “increases DRD1 mRNA and protein expression in a time-dependent manner”. Moreover, the “DRD1 mRNA expression, treatment alone” value in the assay with human DRD1 gene (setting [2]) and in the assay with human DRD1 gene (setting [3]) was “increased human DRD1 mRNA expression” in each case.
